Assay results reported in the supplement of paper PMC10307832.

Columns and labels:
Test in all cases: relative viability (nuclei count vs DMSO), 5 days (fraction); higher = more cells survive
ChaGo-K-1 = system: ChaGo-K-1
How it was run: (§1)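 Nuclei were stained with Hoechst during a one-step fixation (final 0.05% Triton X-100, 1% formaldehyde, 1 ug/ml Hoechst) carried out 5 days after dosing, then counted on 4× images. The cells, lung cancer lines in 1536-well plates, had been dosed by pin tool the day after seeding with one drug alone or a fixed anchor-drug dose plus five library-drug doses (not always all listed) in √10 steps. Relative viability is the nuclei count in treated wells divided by that in vehicle wells, and each value is the median of duplicate plates.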

EKVX = system: EKVX
How it was run: as §1

EPLC-272H = system: EPLC-272H
How it was run: as §1

H3255 = system: H3255
How it was run: as §1

HCC-827 = system: HCC-827
How it was run: as §1

HOP-62 = system: HOP-62
How it was run: as §1

LCLC-97TM1 = system: LCLC-97TM1
How it was run: as §1

LK-2 = system: LK-2
How it was run: as §1

LU99A = system: LU99A
How it was run: as §1

LXF-289 = system: LXF-289
How it was run: as §1

NCI-H1355 = system: NCI-H1355
How it was run: as §1

NCI-H1650 = system: NCI-H1650
How it was run: as §1

NCI-H1993 = system: NCI-H1993
How it was run: as §1

NCI-H2170 = system: NCI-H2170
How it was run: as §1

NCI-H2228 = system: NCI-H2228
How it was run: as §1

NCI-H2405 = system: NCI-H2405
How it was run: as §1

NCI-H3122 = system: NCI-H3122
How it was run: as §1

NCI-H441 = system: NCI-H441
How it was run: as §1

NCI-H522 = system: NCI-H522
How it was run: as §1

PC-3 [JPC-3] = system: PC-3 [JPC-3]
How it was run: as §1

SK-LU-1 = system: SK-LU-1
How it was run: as §1

SW 1573 = system: SW 1573
How it was run: as §1

UMC-11 = system: UMC-11
How it was run: as §1

`Cc1cn(-c2cc(NC(=O)c3ccc(C)c(Nc4nccc(-c5cccnc5)n4)c3)cc(C(F)(F)F)c2)cn1` [Nilotinib] + CCNC(=O)c1noc(-c2cc(C(C)C)c(O)cc2O)c1-c1ccc(CN2CCOCC2)cc1 [Luminespib] (partner 0.01 µM) was tested, and the relative viability (ChaGo-K-1; first compound 0.001 µM) was 0.416, the relative viability (ChaGo-K-1; first compound 0.003162 µM) was 0.48 and the relative viability (ChaGo-K-1; first compound 0.01 µM) was 1.01. For the same compound, the relative viability (ChaGo-K-1; first compound 0.03162 µM) was 0.531, the relative viability (ChaGo-K-1; first compound 0.1 µM) was 0.666 and the relative viability (EKVX; first compound 0.001 µM) was 0.839. The relative viability (EKVX; first compound 0.003162 µM) was 0.959, the relative viability (EKVX; first compound 0.01 µM) was 1.09 and the relative viability (EKVX; first compound 0.03162 µM) was 0.88. For the same compound, the relative viability (EKVX; first compound 0.1 µM) was 0.955, the relative viability (EPLC-272H; first compound 0.001 µM) was 0.134 and the relative viability (EPLC-272H; first compound 0.003162 µM) was 0.205. It also gave a relative viability (EPLC-272H; first compound 0.01 µM) of 0.277, a relative viability (EPLC-272H; first compound 0.03162 µM) of 0.265 and a relative viability (EPLC-272H; first compound 0.1 µM) of 0.175. The relative viability (H3255; first compound 0.001 µM) was 0.9, the relative viability (H3255; first compound 0.003162 µM) was 0.733 and the relative viability (H3255; first compound 0.03162 µM) was 0.922. The relative viability (H3255; first compound 0.1 µM) was 0.325, the relative viability (HCC-827; first compound 0.003162 µM) was 0.634 and the relative viability (HCC-827; first compound 0.01 µM) was 0.721. The relative viability (HCC-827; first compound 0.03162 µM) was 0.563, the relative viability (HCC-827; first compound 0.1 µM) was 0.542 and the relative viability (HOP-62; first compound 0.001 µM) was 0.727. It also gave a relative viability (HOP-62; first compound 0.003162 µM) of 0.792, a relative viability (HOP-62; first compound 0.01 µM) of 0.839 and a relative viability (HOP-62; first compound 0.03162 µM) of 0.786. The relative viability (HOP-62; first compound 0.1 µM) was 0.529, the relative viability (LCLC-97TM1; first compound 0.001 µM) was 0.795 and the relative viability (LCLC-97TM1; first compound 0.003162 µM) was 0.868. For the same compound, the relative viability (LCLC-97TM1; first compound 0.01 µM) was 0.741, the relative viability (LCLC-97TM1; first compound 0.03162 µM) was 0.607 and the relative viability (LCLC-97TM1; first compound 0.1 µM) was 0.641. The relative viability (LK-2; first compound 0.003162 µM) was 0.139, the relative viability (LK-2; first compound 0.01 µM) was 0.207 and the relative viability (LK-2; first compound 0.03162 µM) was 0.196. For the same compound, the relative viability (LK-2; first compound 0.1 µM) was 0.182, the relative viability (LU99A; first compound 0.001 µM) was 0.227 and the relative viability (LU99A; first compound 0.01 µM) was 0.274. It also gave a relative viability (LU99A; first compound 0.03162 µM) of 0.219, a relative viability (LU99A; first compound 0.1 µM) of 0.213 and a relative viability (LXF-289; first compound 0.001 µM) of 0.655. It also gave a relative viability (LXF-289; first compound 0.003162 µM) of 1.02, a relative viability (LXF-289; first compound 0.01 µM) of 0.988 and a relative viability (LXF-289; first compound 0.03162 µM) of 0.573. For the same compound, the relative viability (LXF-289; first compound 0.1 µM) was 0.649, the relative viability (NCI-H1355; first compound 0.001 µM) was 0.542 and the relative viability (NCI-H1355; first compound 0.003162 µM) was 0.7. It also gave a relative viability (NCI-H1355; first compound 0.01 µM) of 0.644, a relative viability (NCI-H1355; first compound 0.03162 µM) of 0.549 and a relative viability (NCI-H1355; first compound 0.1 µM) of 0.654. It also gave a relative viability (NCI-H1650; first compound 0.001 µM) of 0.208, a relative viability (NCI-H1650; first compound 0.003162 µM) of 0.203 and a relative viability (NCI-H1650; first compound 0.01 µM) of 0.197. It also gave a relative viability (NCI-H1650; first compound 0.03162 µM) of 0.221, a relative viability (NCI-H1650; first compound 0.1 µM) of 0.192 and a relative viability (NCI-H1993; first compound 0.001 µM) of 0.928. The relative viability (NCI-H1993; first compound 0.003162 µM) was 0.456, the relative viability (NCI-H1993; first compound 0.01 µM) was 0.912 and the relative viability (NCI-H1993; first compound 0.03162 µM) was 0.773. It also gave a relative viability (NCI-H1993; first compound 0.1 µM) of 0.765, a relative viability (NCI-H2170; first compound 0.001 µM) of 0.591 and a relative viability (NCI-H2170; first compound 0.003162 µM) of 1.11. For the same compound, the relative viability (NCI-H2170; first compound 0.01 µM) was 1.5, the relative viability (NCI-H2170; first compound 0.03162 µM) was 0.328 and the relative viability (NCI-H2170; first compound 0.1 µM) was 0.877. It also gave a relative viability (NCI-H2228; first compound 0.003162 µM) of 0.161, a relative viability (NCI-H2228; first compound 0.01 µM) of 0.183 and a relative viability (NCI-H2228; first compound 0.03162 µM) of 0.151. The relative viability (NCI-H2228; first compound 0.1 µM) was 0.0953, the relative viability (NCI-H2405; first compound 0.001 µM) was 0.76 and the relative viability (NCI-H2405; first compound 0.003162 µM) was 0.575. The relative viability (NCI-H2405; first compound 0.01 µM) was 0.756, the relative viability (NCI-H2405; first compound 0.03162 µM) was 0.448 and the relative viability (NCI-H2405; first compound 0.1 µM) was 0.658. For the same compound, the relative viability (NCI-H3122; first compound 0.001 µM) was 0.109, the relative viability (NCI-H3122; first compound 0.003162 µM) was 0.106 and the relative viability (NCI-H3122; first compound 0.01 µM) was 0.0956. It also gave a relative viability (NCI-H3122; first compound 0.03162 µM) of 0.0805, a relative viability (NCI-H3122; first compound 0.1 µM) of 0.047 and a relative viability (NCI-H441; first compound 0.001 µM) of 0.33. It also gave a relative viability (NCI-H441; first compound 0.003162 µM) of 0.375, a relative viability (NCI-H441; first compound 0.01 µM) of 0.322 and a relative viability (NCI-H441; first compound 0.03162 µM) of 0.413. For the same compound, the relative viability (NCI-H441; first compound 0.1 µM) was 0.304, the relative viability (NCI-H522; first compound 0.001 µM) was 1.11 and the relative viability (NCI-H522; first compound 0.003162 µM) was 1.13. The relative viability (NCI-H522; first compound 0.01 µM) was 1.35, the relative viability (NCI-H522; first compound 0.03162 µM) was 1.07 and the relative viability (NCI-H522; first compound 0.1 µM) was 1.15. It also gave a relative viability (PC-3 [JPC-3]; first compound 0.001 µM) of 0.548, a relative viability (PC-3 [JPC-3]; first compound 0.003162 µM) of 0.627 and a relative viability (PC-3 [JPC-3]; first compound 0.01 µM) of 0.869. It also gave a relative viability (PC-3 [JPC-3]; first compound 0.03162 µM) of 0.659, a relative viability (PC-3 [JPC-3]; first compound 0.1 µM) of 0.526 and a relative viability (SK-LU-1; first compound 0.001 µM) of 0.19. The relative viability (SK-LU-1; first compound 0.003162 µM) was 0.212, the relative viability (SK-LU-1; first compound 0.03162 µM) was 0.215 and the relative viability (SK-LU-1; first compound 0.1 µM) was 0.217. It also gave a relative viability (SW 1573; first compound 0.001 µM) of 0.397, a relative viability (SW 1573; first compound 0.003162 µM) of 0.711 and a relative viability (SW 1573; first compound 0.01 µM) of 0.277. The relative viability (SW 1573; first compound 0.03162 µM) was 0.163, the relative viability (SW 1573; first compound 0.1 µM) was 0.144 and the relative viability (UMC-11; first compound 0.001 µM) was 0.978. For the same compound, the relative viability (UMC-11; first compound 0.003162 µM) was 1.22, the relative viability (UMC-11; first compound 0.01 µM) was 1.26 and the relative viability (UMC-11; first compound 0.1 µM) was 1.39.
